Experimental data as given in patent US4328242A, “α-(3,4,5-Trimethoxyhenzoyl)thiopropionyl-glycine” (Ausoria Farmaceutici S.r.l., priority 1980, dated 1982).
Like-named read-outs stand apart in the source and are kept apart here.

Assays:
Solubility = assay type: physicochemical
From the text: The structure of the compound is confirmed by analytical and spectroscopic analysis, specifically IR and NMR spectra. The compound is in the form of a white micro-cyrstalline powder, odorless and almost tasteless. It is soluble in a saturated solution of sodium bicarbonate and in other basic solutions. The substance is insoluble in water, soluble in warm ethanol.

rats [1] = assay: Protective action on chronic bronchitis induced by inhalation of SO2; assay type: in vivo; settings: SO2 aerosol, 100 and 400 mg/kg oral, rectal and inhalation, two weeks
Experimental: Bronchopulmonary lesions were induced in the animals by aerosolization of SO2. The animals were then treated for two weeks with TBPG in the dosage of 100 and 400 mg/kg by the oral route, rectal route and by inhalation.

rats [2] = assay: Protective activity of the liver in the intoxication caused by CCl4 (BSF elimination); assay type: in vivo; settings: rats intoxicated with CCl4; 200 and 400 mg/kg orally, 14 days; BSF 10 mg/kg i.v. on day 15; proportionate to the dosage
Experimental: The animals, that is rats, were intoxicated with CCl4 for a period of seven days. They were treated during the same days and for a subsequent period of seven days with TBPG in the dose of 200 and 400 mg/kg orally and with α-mercaptopropionylglycine in the dose of 90 and 180 mg/kg orally. On the fifteenth day, the rats have been treated with BSF in the amount of 10 mg/kg intravenously.

rabbits = assay: Secretory activity in rabbits (bronchial secretion); assay type: in vivo
From the text: This activity has been determined using the method described by E. M. Boyd and C. F. Boyd, modified by P. C. Braga, et al described in Bronchial Hypersecretion, 1973. This activity has been determined every hour for a period of four hours by measuring the amount of bronchial secretion derived from the laryngo-tracheal organs and from the tracheo-bronchial organs of rabbits.

[3] = assay type: in vivo; settings: rats, oral route, equimolar doses
[4] = biological target: T1, glutathione peroxidase (GSHP) (Homo sapiens, UniProt P07203); assay: Action on the glutathione peroxidase (GSHP); assay type: biochemical; settings: system glutathione/NADPH/GSH-reductase/cumene hydroperoxide; read-out: apparent Ki
T1 sequence (P07203 1-203): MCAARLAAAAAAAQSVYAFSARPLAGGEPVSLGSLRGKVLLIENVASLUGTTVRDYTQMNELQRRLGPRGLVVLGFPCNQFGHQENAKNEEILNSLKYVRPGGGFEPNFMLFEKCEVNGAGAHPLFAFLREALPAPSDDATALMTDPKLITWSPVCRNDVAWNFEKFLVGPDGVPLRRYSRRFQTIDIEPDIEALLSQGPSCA
From the text: The experiment has been carried out for the purpose of determining the inhibitory activity if any of TBPG with respect to GSHP, an enzyme well known connected with phlogistic processes.
The results have been obtained using the system glutathione/NADPH/GSH-reductase/cumene hydroperoxide and have shown that TBPG is capable of exerting an inhibitory activity on GSHP with an apparent Ki 5.4.10^-3 molar.

New Zealand rabbits = assay: Toxicity in the fetus, rabbits; assay type: in vivo; settings: female rabbits, daily oral and subcutaneous, 250 and 500 mg/kg, twenty eight days of gestation
From the text: Toxicity in the fetus of TBPG has been studied in albino Sprague-Dawley rats and in New Zealand rabbits. In the case of rats both male and female, the treatment has been initiated four weeks prior to coupling and then has been continued only in the females during the twenty days of gestation.
In the case of female rabbits, the treatment has been carried out during the twenty eight days of gestation.

rats [5] = assay: Chronic toxicity in rats; assay type: in vivo; settings: 24 weeks, 125 and 250 mg/kg oral, 200 mg/kg by inhalation
Experimental: The chronic toxicity of TBPG has been investigated in rats and dogs treated for a period of 24 weeks with 125 mg/kg and 250 mg/kg by the oral route and 200 mg/kg by inhalation.

Stability to light = assay type: physicochemical; settings: powder form, light of a 60 watt lamp, three months
guinea pigs = assay: Protective activity in subacute bronchitis induced by inhalation of citric acid; assay type: in vivo; settings: 7.5% citric acid inhalation, oral, rectal or inhalation, 50 and 200 mg/kg, two weeks
Acute toxicity in rats = assay type: in vivo; settings: rat, in vivo; for mortality at 240 h: read-out: % Death; for LD50 at 240 h: 10 days observation, probits, read-out: DL50 mg/kg (Confidential Limits)
Experimental: The acute toxicity has been studied with Swiss albino rats and Wistar albino rats and in both instances, animals of both sexes have been used. The product is administered orally and endoperitoneally and the period of observation is ten days after the initial treatment. The values of DL50 by the statistical method with confidential limits up to 95% are calculated by means of the method of probits reported in Table I. Probits is a statistical unit of probable deviation used in biological assays; equal to the normal equivalent deviate increased by 5, used to make all normal equivalent deviation values positive.

[6] = with respect to the control animals

## COc1cc(C(=O)SC(C)C(=O)NCC(=O)O)cc(OC)c1OC (stereo not drawn) [TBPG, α-(3,4,5-trimethoxybenzoyl)thiopropionylglycine]
Solubility; saturated solution of sodium bicarbonate and other basic solutions
  solubility: soluble
Solubility; warm ethanol
  solubility: soluble
Solubility; water
  solubility: insoluble
Rats [1]
  protection of the bronchi and lungs (bronchopulmonary lesions and mortality): significant action in the protection of the bronchi and lungs
Rats [2]
  elimination of BSF (hematic concentrations): favors the elimination of BSF in a statistically significant manner
rabbits; oral, rectal or inhalation, 50 and 200 mg/kg, every hour for four hours
  laryngo-bronchial secretion: increase in a significant manner and proportionally to the dosage
rabbits; [6]
  laryngo-tracheal secretion: equal to the activity of α-mercaptopropionylglycine
  tracheo-bronchial secretion: more substantial activity
[3]
  concentration in the kidney: high concentrations in the kidney
  distribution in the organs: sufficiently homogenous
[3]; statistically significant
  content in the lungs with respect to α-mercaptopropionylglycine: substantially higher content in the lungs
[4]
  Ki: 5.4 mM
New Zealand rabbits
  toxicity in the fetus (deformation, number and weight of living offspring): has not induced any deformation in the fetus and has not affected the number and the weight of the living offspring
Rats [5]
  chronic toxicity (symptoms, behavior, deaths, body growth, hematology, hepatic and renal functions, organs): totally innocuous
Stability to light
  stability to light: undergoes no change
Guinea pigs
  mortality index: substantially reduced
  protective action on bronchial conditions (macro and micro examination of the lungs): effective protective action in proportion to the dose
Acute toxicity in rats; ip, 1500 mg/kg
  mortality at 240 h: 0%
Acute toxicity in rats; ip, 2000 mg/kg
  mortality at 240 h: 30%
Acute toxicity in rats; ip, 2500 mg/kg
  mortality at 240 h: 45%
Acute toxicity in rats; ip, 3000 mg/kg
  mortality at 240 h: 70%
Acute toxicity in rats; ip, 3500 mg/kg
  mortality at 240 h: 85%
Acute toxicity in rats; ip, 95% limits (2483-2887)
  LD50 at 240 h: 2670 mg/kg
Acute toxicity in rats; po, orally, 3000 mg/kg
  mortality at 240 h: 5%
Acute toxicity in rats; po, orally, 4000 mg/kg
  mortality at 240 h: 30%
Acute toxicity in rats; po, orally, 5000 mg/kg
  mortality at 240 h: 45%
Acute toxicity in rats; po, orally, 6000 mg/kg
  mortality at 240 h: 60%
Acute toxicity in rats; po, orally, 7000 mg/kg
  mortality at 240 h: 85%
Acute toxicity in rats; po, orally, 95% limits (4879-5873)
  LD50 at 240 h: 5230 mg/kg
